Results reported in patent US9409952B2, “Peptide-compound cyclization method” (Chugai Seiyaku Kabushiki Kaisha, priority 2011, dated 2016).
Where two headings read alike, the source gives them in different places. Starred links: 1 amine or outer side, 2 acyl side, 3 side chain; linkers in the order of their positions; H or OH if unused. Positions of bridges follow the written chain, without caps; N, C: chain ends. Non-standard residues stand in square brackets, D forms with d. Residues, ends and D or L forms follow the SMILES beside them. *: point of attachment. NMeF = CN[C@@H](Cc1ccccc1)C(=O)O; NMeGABA = CN(CCCC(=O)[*:2])[*:1]; NMeI = CC[C@H](C)[C@H](NC)C(=O)O; NMeβAla = CN(CCC(=O)[*:2])[*:1]; NMeL = CN[C@@H](CC(C)C)C(=O)O; NMeV = CN[C@H](C(=O)O)C(C)C; NMeA = CN[C@@H](C)C(=O)O; Piperidide = C1CCN(*)CC1; dNMeA = CN[C@H](C)C(=O)O; Sar = CNCC(=O)O; tBu = CC(C)(C)*

Tests used:
[1] = PAMPA (parallel artificial membrane permeability assay); format: in vitro ADME; conditions: PAMPA
Summary of the method: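 Artificial membrane was 10% (w/v) egg lecithin plus 0.5% (w/v) cholesterol in dodecane on a PVDF filter. A 10 mM DMSO stock was added at 0.5% (v/v) to donor buffer (50 mM MOPSO, pH 6.5, 5.0% glycocholic acid). After 18 h at 37 °C, LC/MS or LC/UV gave donor and acceptor levels for Pe.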

[2] = Metabolic stability in human hepatic microsome; format: in vitro ADME; conditions: microsomes
[3] = membrane permeation rate (Pe), 50 mM MOPSO buffer pH 6.5 with 5.0% glycocholic acid, 37° C., 18 hours, read-out: iPAMPA Pe
[4] = pH 7.4, human hepatic microsome, NADPH(+), read-out: CL NADPH(+)

## CC[C@H](C)[C@@H]1NC(=O)[C@H](CC(C)C)N(C)C(=O)[C@H](C)NC(=O)CCCN(C)C(=O)C[C@@H](C(=O)N2CCCCC2)NC(=O)[C@H]([C@@H](C)O)NC(=O)[C@H](Cc2ccccc2)NC(=O)[C@H](C(C)C)N(C)C(=O)[C@H](CC(C)C)N(C)C(=O)[C@H](Cc2ccccc2)N(C)C1=O [DP-121] ([NMeGABA]A[NMeL]I[NMeF][NMeL][NMeV]FTD-Piperidide; lactam N-10)
[1]; pH 6.5
  Papp at 18 hours, 50 µM: 41 ×10⁻⁶ cm/s
[2]; human, pH 7.4, CL NADPH(+)
  microsomal CLint at 1 uM: 46 µL/min/mg

## CC(C)C[C@H]1C(=O)N(C)[C@@H](Cc2ccccc2)C(=O)N[C@@H]([C@@H](C)O)C(=O)N(C)[C@@H](C)C(=O)N(C)[C@@H](CC(C)C)C(=O)N(C)[C@@H](CC(C)C)C(=O)N[C@H](C(=O)N2CCCCC2)CC(=O)N(C)CCCC(=O)N[C@@H](COC(C)(C)C)C(=O)N(C)CC(=O)N1C [DP-122] ([NMeGABA]S(tBu)[Sar][NMeL][NMeF]T[NMeA][NMeL][NMeL]D-Piperidide; lactam N-10)
[1]; pH 6.5
  Papp at 18 hours, 50 µM: 32 ×10⁻⁶ cm/s
[2]; human, pH 7.4, CL NADPH(+)
  microsomal CLint at 1 uM: 169 µL/min/mg

## CC(C)C[C@H]1C(=O)N(C)[C@@H](CC(C)C)C(=O)N[C@H](C(=O)N(C)[C@@H](Cc2ccccc2)C(=O)N[C@@H](C)C(=O)N2CCCCC2)CC(=O)N[C@H](C(C)C)C(=O)N(C)[C@@H](C)C(=O)N(C)[C@@H](Cc2ccccc2)C(=O)N(C)[C@@H](CC(C)C)C(=O)N[C@@H]([C@@H](C)O)C(=O)N(C)CC(=O)N[C@@H](C(C)C)C(=O)N1C [DP-123] ([dV][NMeA][NMeF][NMeL]T[Sar]V[NMeL][NMeL]D[NMeF]A-Piperidide; lactam N-10)
[1]; [3]
  Papp at 18 hours, 50 µM: 58 ×10⁻⁶ cm/s
[2]; [4]
  microsomal CLint at 1 uM: 21 µL/min/mg

## CC[C@H](C)[C@@H]1NC(=O)[C@@H](C)N(C)C(=O)C[C@@H](C(=O)N(C)[C@@H](Cc2ccccc2)C(=O)N[C@@H](C)C(=O)N2CCCCC2)NC(=O)[C@H](Cc2ccccc2)N(C)C(=O)[C@H](C)NC(=O)[C@H](CC(C)C)N(C)C(=O)[C@H](C)N(C)C(=O)[C@H]([C@@H](C)O)NC(=O)[C@H](C(C)C)N(C)C(=O)[C@H](C)N(C)C1=O [DP-124] ([dNMeA]I[NMeA][NMeV]T[NMeA][NMeL]A[NMeF]D[NMeF]A-Piperidide; lactam N-10)
[1]; pH 6.5
  Papp at 18 hours, 50 µM: 20 ×10⁻⁶ cm/s
[2]; human, pH 7.4, CL NADPH(+)
  microsomal CLint at 1 uM: 27 µL/min/mg

## CC(C)C[C@@H]1NC(=O)[C@H](Cc2ccccc2)N(C)C(=O)[C@H](CC(C)C)N(C)C(=O)CCN(C)C(=O)C[C@@H](C(=O)N2CCCCC2)NC(=O)[C@H](CC(C)C)N(C)C(=O)[C@H](Cc2ccccc2)N(C)C(=O)[C@H]([C@@H](C)O)NC(=O)[C@H](Cc2ccccc2)N(C)C1=O [DP-126] ([NMeβAla][NMeL][NMeF]L[NMeF]T[NMeF][NMeL]D-Piperidide; lactam N-9)
[1]; [3]
  Papp at 18 hours, 50 µM: 54 ×10⁻⁶ cm/s
[2]; [4]
  microsomal CLint at 1 uM: 239 µL/min/mg

## CC(C)C[C@@H]1NC(=O)[C@@H](C)N(C)C(=O)C[C@@H](C(=O)N2CCCCC2)NC(=O)[C@H](CC(C)C)N(C)C(=O)[C@H](Cc2ccccc2)N(C)C(=O)[C@H](CC(C)C)NC(=O)[C@H](Cc2ccccc2)N(C)C(=O)[C@H](C)N(C)C(=O)[C@H]([C@@H](C)O)NC1=O [DP-127] ([dNMeA]LT[NMeA][NMeF]L[NMeF][NMeL]D-Piperidide; lactam N-9)
[1]; [3]
  Papp at 18 hours, 50 µM: 47 ×10⁻⁶ cm/s
[2]; [4]
  microsomal CLint at 1 uM: 194 µL/min/mg

## CC(C)C[C@H]1C(=O)N[C@@H]([C@@H](C)O)C(=O)N(C)[C@@H](C)C(=O)N(C)[C@@H](CC(C)C)C(=O)N[C@H](C(=O)N2CCCCC2)CC(=O)N(C)CCCC(=O)N[C@@H](C)C(=O)N(C)[C@@H](Cc2ccccc2)C(=O)N[C@@H](Cc2ccccc2)C(=O)N1C [DP-128] ([NMeGABA]A[NMeF]F[NMeL]T[NMeA][NMeL]D-Piperidide; lactam N-9)
[1]; [3]
  Papp at 18 hours, 50 µM: 23 ×10⁻⁶ cm/s
[2]; [4]
  microsomal CLint at 1 uM: 276 µL/min/mg

## CC(C)C[C@H]1C(=O)N(C)[C@@H](Cc2ccccc2)C(=O)NCC(=O)N[C@H](C(=O)N2CCCCC2)CC(=O)N(C)CCCC(=O)N[C@@H]([C@@H](C)O)C(=O)N(C)[C@@H](C)C(=O)N(C)[C@@H](Cc2ccccc2)C(=O)N[C@@H](COC(C)(C)C)C(=O)N1C [DP-129] ([NMeGABA]T[NMeA][NMeF]S(tBu)[NMeL][NMeF]GD-Piperidide; lactam N-9)
[1]; [3]
  Papp at 18 hours, 50 µM: 17 ×10⁻⁶ cm/s
[2]; [4]
  microsomal CLint at 1 uM: 120 µL/min/mg

## CC(C)C[C@H]1C(=O)N[C@@H]([C@@H](C)O)C(=O)N(C)[C@@H](C)C(=O)N(C)[C@@H](CC(C)C)C(=O)N(C)[C@@H](Cc2ccccc2)C(=O)N[C@@H](COC(C)(C)C)C(=O)N[C@H](C(=O)N2CCCCC2)CC(=O)N(C)CCCC(=O)N(C)[C@@H](C)C(=O)N1C [DP-130] ([NMeGABA][NMeA][NMeL]T[NMeA][NMeL][NMeF]S(tBu)D-Piperidide; lactam N-9)
[1]; [3]
  Papp at 18 hours, 50 µM: 21 ×10⁻⁶ cm/s
[2]; [4]
  microsomal CLint at 1 uM: 76 µL/min/mg

## CC[C@H](C)[C@@H]1NC(=O)[C@H](CC(C)C)N(C)C(=O)[C@H](Cc2ccccc2)N(C)C(=O)[C@H](CC(C)C)NC(=O)[C@@H](C)NC(=O)C[C@@H](C(=O)N2CCCCC2)NC(=O)[C@H](C)N(C)C(=O)[C@H](C)N(C)C(=O)CN(C)C(=O)[C@H]([C@@H](C)O)NC(=O)[C@H](Cc2ccccc2)N(C)C(=O)[C@H](C(C)C)N(C)C1=O [DP-131] ([dA]L[NMeF][NMeL]I[NMeV][NMeF]T[Sar][NMeA][NMeA]D-Piperidide; lactam N-12)
[1]; [3]
  Papp at 18 hours, 50 µM: 61 ×10⁻⁶ cm/s
[2]; [4]
  microsomal CLint at 1 uM: 48 µL/min/mg

## CC[C@H](C)[C@@H]1NC(=O)[C@@H](C(C)C)NC(=O)C[C@@H](C(=O)N2CCCCC2)NC(=O)[C@H](C)N(C)C(=O)[C@H](CC(C)C)N(C)C(=O)CN(C)C(=O)[C@H]([C@@H](C)O)NC(=O)[C@H](Cc2ccccc2)N(C)C(=O)[C@H](CC(C)C)N(C)C(=O)[C@H](C)NC(=O)[C@H](C(C)C)N(C)C(=O)[C@H](Cc2ccccc2)N(C)C1=O [DP-132] ([dV]I[NMeF][NMeV]A[NMeL][NMeF]T[Sar][NMeL][NMeA]D-Piperidide; lactam N-12)
[1]; [3]
  Papp at 18 hours, 50 µM: 39 ×10⁻⁶ cm/s
[2]; [4]
  microsomal CLint at 1 uM: 37 µL/min/mg

## CC(C)C[C@@H]1NC(=O)[C@H](C)N(C)C(=O)C[C@@H](C(=O)N2CCCCC2)NC(=O)[C@H](Cc2ccccc2)N(C)C(=O)[C@H](CC(C)C)N(C)C(=O)CN(C)C(=O)[C@H]([C@@H](C)O)NC(=O)[C@H](C)N(C)C(=O)[C@H](C(C)C)N(C)C(=O)[C@H](C)NC(=O)[C@H](CC(C)C)N(C)C(=O)[C@H](Cc2ccccc2)N(C)C1=O [DP-133] ([NMeA]L[NMeF][NMeL]A[NMeV][NMeA]T[Sar][NMeL][NMeF]D-Piperidide; lactam N-12)
[1]; [3]
  Papp at 18 hours, 50 µM: 30 ×10⁻⁶ cm/s
[2]; [4]
  microsomal CLint at 1 uM: 51 µL/min/mg

## CC[C@H](C)[C@@H]1NC(=O)[C@H](Cc2ccccc2)NC(=O)[C@H](Cc2ccccc2)N(C)C(=O)CCN(C)C(=O)C[C@@H](C(=O)N2CCCCC2)NC(=O)[C@H](C)NC(=O)[C@H](CC(C)C)N(C)C(=O)[C@H](CC(C)C)N(C)C(=O)CN(C)C(=O)[C@H]([C@@H](C)O)NC(=O)[C@H](C(C)C)N(C)C(=O)[C@@H]2CCCN2C1=O [DP-134] ([NMeβAla][NMeF]FIP[NMeV]T[Sar][NMeL][NMeL]AD-Piperidide; lactam N-12)
[1]; [3]
  Papp at 18 hours, 50 µM: 13 ×10⁻⁶ cm/s
[2]; [4]
  microsomal CLint at 1 uM: 18 µL/min/mg

## CC[C@H](C)[C@H]1C(=O)N[C@H](C(=O)N2CCCCC2)CC(=O)N[C@H](C)C(=O)N[C@@H](Cc2ccccc2)C(=O)N(C)[C@@H](C)C(=O)N(C)[C@@H](C(C)C)C(=O)N[C@@H]([C@@H](C)O)C(=O)N(C)CC(=O)N(C)[C@@H](CC(C)C)C(=O)N[C@@H](C)C(=O)N1C [DP-135] ([dA]F[NMeA][NMeV]T[Sar][NMeL]A[NMeI]D-Piperidide; lactam N-10)
[1]; [3]
  Papp at 18 hours, 50 µM: 5.2 ×10⁻⁶ cm/s
[2]; [4]
  microsomal CLint at 1 uM: 15 µL/min/mg

## CC[C@H](C)[C@@H]1NC(=O)[C@H](CC(C)C)N(C)C(=O)[C@H](C)N(C)C(=O)[C@@H](C)NC(=O)C[C@@H](C(=O)N2CCCCC2)NC(=O)[C@H](CC(C)C)N(C)C(=O)[C@H](C)N(C)C(=O)[C@H]([C@@H](C)O)NC(=O)[C@H](Cc2ccccc2)N(C)C(=O)[C@H](Cc2ccccc2)N(C)C1=O [DP-136] ([dA][NMeA][NMeL]I[NMeF][NMeF]T[NMeA][NMeL]D-Piperidide; lactam N-10)
[1]; [3]
  Papp at 18 hours, 50 µM: 35 ×10⁻⁶ cm/s
[2]; [4]
  microsomal CLint at 1 uM: 147 µL/min/mg

## CC[C@H](C)[C@@H]1NC(=O)[C@H](Cc2ccccc2)NC(=O)[C@H](C(C)C)N(C)C(=O)CN(C)C(=O)C[C@@H](C(=O)N2CCCCC2)NC(=O)[C@H]([C@@H](C)O)NC(=O)[C@H](CC(C)C)N(C)C(=O)[C@H](Cc2ccccc2)NC(=O)[C@H](CC(C)C)N(C)C(=O)CNC(=O)[C@H](CC(C)C)NC(=O)[C@H](C)N(C)C1=O [DP-137] ([Sar][NMeV]FI[NMeA]LG[NMeL]F[NMeL]TD-Piperidide; lactam N-12)
[1]; [3]
  Papp at 18 hours, 50 µM: 32 ×10⁻⁶ cm/s
[2]; [4]
  microsomal CLint at 1 uM: 86 µL/min/mg

## CC[C@H](C)[C@H]1C(=O)N[C@@H](COC(C)(C)C)C(=O)N[C@H](C(=O)N2CCCCC2)CC(=O)N(C)[C@@H](C)C(=O)N(C)[C@@H](Cc2ccccc2)C(=O)N(C)CC(=O)N(C)[C@@H](CC(C)C)C(=O)N[C@@H]([C@@H](C)O)C(=O)N(C)[C@@H](C)C(=O)N(C)[C@@H](CC(C)C)C(=O)N1C [DP-138] ([NMeA][NMeF][Sar][NMeL]T[NMeA][NMeL][NMeI]S(tBu)D-Piperidide; lactam N-10)
[1]; [3]
  Papp at 18 hours, 50 µM: 31 ×10⁻⁶ cm/s
[2]; [4]
  microsomal CLint at 1 uM: 48 µL/min/mg

## CC(C)C[C@@H]1NC(=O)[C@@H](C)NC(=O)C[C@@H](C(=O)N2CCCCC2)NC(=O)[C@H](CC(C)C)N(C)C(=O)[C@H](C)N(C)C(=O)[C@H](CC(C)C)N(C)C(=O)[C@H](CC(C)C)N(C)C(=O)[C@H](Cc2ccccc2)N(C)C(=O)[C@H](C)NC(=O)[C@H](Cc2ccccc2)N(C)C(=O)[C@H]([C@@H](C)O)NC1=O [DP-139] ([dA]LT[NMeF]A[NMeF][NMeL][NMeL][NMeA][NMeL]D-Piperidide; lactam N-11)
[1]; [3]
  Papp at 18 hours, 50 µM: 23 ×10⁻⁶ cm/s
[2]; [4]
  microsomal CLint at 1 uM: 22 µL/min/mg
